Measurements: patent publication US20220105058A1, “USE OF 3-O-SULFAMATE-16,16-DIMETHYL-D-HOMOEQUILENIN TO TREAT ONCOLOGICAL DISEASES” (priority 2018, published 2022)
“And” between values parts separate entries of the source, which are not always exact repeats. Equal values may be shown once. Read-outs that look alike come from different tables or passages of the source.

Tests used:
[1] = test system: subcutaneous xenografts of human SKBR-3 breast cancer
Description: A comparative study of the medicaments in vivo was performed in female Balb/c nude mice with subcutaneously (s.c.) transplanted tumor cells. The experiment lasted for 29 days after the medicament administration for the first time (the administration of the medicaments was started on Day 5 after the tumor strain transplantation).
The medicament and the reference drug were administered intragastrically multiple times at doses of 30 mg/kg and 10 mg/kg daily for 21 days.
The placebo group was given 1% starch solution intragastrically in equivalent volumes and in the same regime. Tumor nodes were measured 2 times per week. […] Once the treatment was completed, the last tumor measurement was carried out, and animals were weighed and euthanized.
The animals were weighed on the first day of the experiment, and then 2 times per week throughout the experiment according to the research protocol.
A tumor node was measured after tumor transplantation 2 times per week throughout the experiment. The tumor node volume was determined by the formula:
V=π/6*L*W*H, where L, W, H are the linear size dimensions of the tumor.
Determination of Antitumor Activity
Tumor growth inhibition index (TGI) was used as a criterion for the study of the medicament efficacy and calculated by the formula as follows:
TGI (%)=|Vctrl−Vexp|/Vctrl*100
where Vctrl and Vexp are the average tumor volume (mm^3) in the control and in the experimental groups, respectively.
After the course of the treatment, the animals were euthanized by the cervical dislocation of cervical vertebrae.
The statistical data processing was conducted using SPSS 21 package (license No. 20130626-3). Descriptive statistics in the study includes the following: arithmetic average, standard deviation (SD), standard mean error (SE), median, quartiles, interquartile range. To compare quantitative characteristics in the groups, the Mann-Whitney-Wilcoxon test was used without corrections for multiple comparisons. The results were considered statistically significant at p<0.05.

[2] = body weight and tolerability during the antitumor study; conditions: for average body weight of mice (M): Tamoxifen 4.0 mg/kg i.g. daily; for Body weight: Tamoxifen 4 mg/kg
Description: The study medicament was administered i.g. using a metal atraumatic gavage (with the procedure corresponds to the oral route of administration in clinical settings). The medicament was administered in a single daily dose (20 mg/kg of body weight) and 5-fold daily dose of 100 mg/kg of body weight. Ex tempore solutions of the medicament for administration were prepared in olive oil (refined olive oil supplemented with unrefined extra virgin olive oil available under Global Village “Clasico” trademark, lot L:183351116, expiry date 26 Apr. 2020, BAIEO, Spain). The administered volume was 0.1 ml per 10 g of a mouse body weight (0.2 ml of a ready-to-use formulation for a mouse of 20 g). The medicament administration was started 24 hours after the randomization. The duration of the administration course was 27-28 days.
This dose corresponds to a human daily dose of 20 mg/kg.
The evaluation criteria included the clinical observation data, animals body weights, time of death (if applicable), tumor growth over time, pathomorphological examination data (verification of a neoplasm during autopsy, assessment of toxic effects by macroscopic presentation of changes in the internal organs).
The animals body weights were recorded before the first administration of the medicaments and then twice per week using a verified high-speed electronic laboratory balance Ohaus Scout Pro (USA) with a maximum load of 2000 g and a measurement step of 0.1 g.

[3] = cholesterol and triglycerides in blood serum (summary statement)
[4] = test system: Normal human dermal fibroblasts (HDF); assay: growth of normal human skin fibroblasts (negative control); format: cell-based; conditions: concentration of 20 μg/ml
Description: The study analysis was carried out on an passaged MCF-7 human cells culture culture (breast adenocarcinoma). Normal human dermal fibroblasts (HDF) of early passages were used as a negative control. The cells were cultivated in Carrel vials in DMEM/F12 medium (Biolot) with 1.0% of antibiotic-free fetal bovine embryonic serum (Biolot) added in the 5% CO2 atmosphere, at 37° C.
The cells were seeded on Carrel vials at 50×10^4 cells per flask. To study the proliferative activity of the cells under conditions of sulfatase inhibition, 24 hours after seeding the culture medium was […], and then these tumor cell lines were incubated for various periods of time (24 to 72 hrs). The inhibitor was dissolved in DMSO. […] To exclude the cytotoxic effect of DMSO, a control sample comprising DMSO without sulfatase inhibitor was prepared. To exclude nonspecific detrimental effects of the compounds, normal human skin fibroblasts were used. Then the cells were detached with the versene-trypsin solution (Biolot), plated onto Carrel vials containing a fresh complete culture medium. The cells were counted when untreated control cells reached the maximum cell density per unit of surface area of a culture flask (monolayer), and their number was set as 100%. The proliferative activity of all of the studied cell cultures exposed to sulfatase inhibitors was determined in triplicate.

[5] = test system: chronic myelogenous leukemia cells (K562); assay: activity against K562; format: cell-based
[6] = test system: hepatocellular carcinoma SK-Hep-1 cells; assay: activity against SK-Hep-1 cells; format: cell-based; conditions: Homo sapiens, SK-HEP1
[7] = pilot experiment, medicament 10 mg/kg, Day 10

In the case of CC/C(=C(\c1ccccc1)c1ccc(OCCN(C)C)cc1)c1ccccc1 [Tamoxifen], the “average tumor volume (M ± m)” value ([1]; Tamoxifen 10 mg/kg, Day 0) is reported as 0.7±0.1 mm^3, the “average tumor volume (M ± m)” value ([1]; Tamoxifen 10 mg/kg, Day 3) is reported as 1.0 ± 0.3 mm^3 and the “SKBR-3 growth inhibition, TGI” value ([1]; Tamoxifen 10 mg/kg, Day 7) is reported as 63.9%. For the same compound, the “average tumor volume (M ± m)” value ([1]; Tamoxifen 10 mg/kg, Day 7) was 7.2±3.9 mm^3, the “SKBR-3 growth inhibition, TGI” value ([1]; Tamoxifen 10 mg/kg, Day 10) was 56.9% and the “average tumor volume (M ± m)” value ([1]; Tamoxifen 10 mg/kg, Day 10) was 33.4±16.1 mm^3. The “SKBR-3 growth inhibition, TGI” value ([1]; Tamoxifen 10 mg/kg, Day 14) was 60.6%, the “average tumor volume (M ± m)” value ([1]; Tamoxifen 10 mg/kg, Day 14) was 47.5±16.8 mm^3 and the “SKBR-3 growth inhibition, TGI” value ([1]; Tamoxifen 10 mg/kg, Day 17) was 68.9%. For the same compound, the “average tumor volume (M ± m)” value ([1]; Tamoxifen 10 mg/kg, Day 17) was 58.0±18.2 mm^3, the “SKBR-3 growth inhibition, TGI” value ([1]; Tamoxifen 10 mg/kg, Day 21) was 45.4% and the “average tumor volume (M ± m)” value ([1]; Tamoxifen 10 mg/kg, Day 21) was 145.5 ± 70.9 mm^3. The “SKBR-3 growth inhibition, TGI” value ([1]; Tamoxifen 10 mg/kg, Day 24) was 9.5%, the “average tumor volume (M ± m)” value ([1]; Tamoxifen 10 mg/kg, Day 24) was 211.1 ± 94.0 mm^3 and the “average tumor volume (M ± m)” value ([1]; Tamoxifen 30 mg/kg, Day 0) was 0.9±0.2 mm^3. For the same compound, the “average tumor volume (M ± m)” value ([1]; Tamoxifen 30 mg/kg, Day 3) was 2.0 ± 0.4 mm^3, the “SKBR-3 growth inhibition, TGI” value ([1]; Tamoxifen 30 mg/kg, Day 7) was 6.2% and the “average tumor volume (M ± m)” value ([1]; Tamoxifen 30 mg/kg, Day 7) was 18.8±7.4 mm^3. The “SKBR-3 growth inhibition, TGI” value ([1]; Tamoxifen 30 mg/kg, Day 10) was 12.6%, the “average tumor volume (M ± m)” value ([1]; Tamoxifen 30 mg/kg, Day 10) was 67.6 ± 21.1 mm^3 and the “SKBR-3 growth inhibition, TGI” value ([1]; Tamoxifen 30 mg/kg, Day 14) was 2.9%. For the same compound, the “average tumor volume (M ± m)” value ([1]; Tamoxifen 30 mg/kg, Day 14) was 117.1 ± 41.7 mm^3, the “SKBR-3 growth inhibition, TGI” value ([1]; Tamoxifen 30 mg/kg, Day 17) was −17.1% and the “average tumor volume (M ± m)” value ([1]; Tamoxifen 30 mg/kg, Day 17) was 218.3 ± 63.6 mm^3. For the same compound, the “SKBR-3 growth inhibition, TGI” value ([1]; Tamoxifen 30 mg/kg, Day 21) was −44.2% and −44.4%, the “average tumor volume (M ± m)” value ([1]; Tamoxifen 30 mg/kg, Day 21) was 384.8±103.2 mm^3 and the “SKBR-3 growth inhibition, TGI” value ([1]; Tamoxifen 30 mg/kg, Day 24) was −68.1%. The “average tumor volume (M ± m)” value ([1]; Tamoxifen 30 mg/kg, Day 24) was 392.1 mm^3, the antitumor efficacy ([1]; pilot experiment, Tamoxifen 10 mg/kg) was “not effective” and the “effect on tumor growth” value ([1]; pilot experiment, Tamoxifen 10 mg/kg, Days 10 to 17) was “tumor growth stimulation was recorded”. The “average body weight of mice (M)” value ([2]; Day 0) was 31.0 g, the “average body weight of mice (M)” value ([2]; Day 7) was 32.0 g and the “average body weight of mice (M)” value ([2]; Day 14) was 32.9 g. The “average body weight of mice (M)” value ([2]; Day 21) was 32.8 g, the “average body weight of mice (M)” value ([2]; Day 28) was 34.2 g and the Body weight ([2]; Day 28, All mice) was 34.2 ± 1.4 g. The Body weight ([2]; Day 28, estrus (E-9)) was 34.2 ± 1.4 g.

In the case of CC1(C)CC(=O)[C@@]2(C)CCc3c(ccc4cc(OS(N)(=O)=O)ccc34)[C@@H]2C1 [medicament, 3-O-sulfamate-16,16-dimethyl-D-homoequilenin], the “effects on the content of triglycerides in blood serum” value [3] is reported as “absence of effects”, the hypocholesterolemic activity [3] is reported as “hypocholesterolemic activity” and the “number of dead mice before the end of the observation period” value ([1]; medicament 10 mg/kg) is reported as 5 out of 7. The “average tumor volume (M ± m)” value ([1]; medicament 10 mg/kg i.g. daily, Day 0 of treatment) was 1.0±0.4 mm^3, the “average tumor volume (M ± m)” value ([1]; medicament 10 mg/kg i.g. daily, Day 0 of treatment, listed as Steroid) was 1.0 ± 0.4 mm^3 and the “average tumor volume (M ± m)” value ([1]; medicament 10 mg/kg, Day 3) was 1.2 ± 0.4 mm^3. The “SKBR-3 growth inhibition, TGI” value ([1]; medicament 10 mg/kg, Day 7) was 74.3%, the “average tumor volume (M ± m)” value ([1]; medicament 10 mg/kg, Day 7) was 5.1±2.3 mm^3 and the “average tumor volume (M ± m)” value ([1]; medicament 10 mg/kg, Day 7, listed as Steroid) was 5.1 ± 2.3 mm^3. For the same compound, the “SKBR-3 growth inhibition, TGI” value ([1]; medicament 10 mg/kg, Day 10) was 68.0%, the “average tumor volume (M ± m)” value ([1]; medicament 10 mg/kg, Day 10) was 24.8±12.2 mm^3 and the “average tumor volume (M ± m)” value ([1]; medicament 10 mg/kg, Day 10, listed as Steroid) was 24.8 ± 12.2 mm^3. For the same compound, the “SKBR-3 growth inhibition, TGI” value ([1]; medicament 10 mg/kg, Day 14) was 94.3%, the “average tumor volume (M ± m)” value ([1]; medicament 10 mg/kg, Day 14) was 6.9±2.2 mm^3 and the “average tumor volume (M ± m)” value ([1]; medicament 10 mg/kg, Day 14, listed as Steroid) was 6.9 ± 2.2 mm^3. For the same compound, the “SKBR-3 growth inhibition, TGI” value ([1]; medicament 10 mg/kg, Day 17) was 90.6%, the “average tumor volume (M ± m)” value ([1]; medicament 10 mg/kg, Day 17) was 17.6±0.7 mm^3 and the “average tumor volume (M ± m)” value ([1]; medicament 10 mg/kg, Day 17, listed as Steroid) was 17.6 ± 0.7 mm^3. For the same compound, the “SKBR-3 growth inhibition, TGI” value ([1]; medicament 10 mg/kg, Day 21) was 90.2%, the “average tumor volume (M ± m)” value ([1]; medicament 10 mg/kg, Day 21) was 26.1±12.1 mm^3 and the “average tumor volume (M ± m)” value ([1]; medicament 10 mg/kg, Day 21, listed as Steroid) was 26.2 ± 12.1 mm^3. The “SKBR-3 growth inhibition, TGI” value ([1]; medicament 10 mg/kg, Day 24) was 86.3%, the “average tumor volume (M ± m)” value ([1]; medicament 10 mg/kg, Day 24) was 32.0 ± 6.9 mm^3 and the “average tumor volume (Vaverage)” value [1, 7] was 2.2±2.0 mm^3. The “maximum TGI” value [1, 7] was 91.2%, the “signs of toxic damage to internal organs at autopsy” value ([2]; end of the experiment) was “No specific signs of toxic damage to internal organs were found” and the “clinical signs of toxicity” value ([2]; mouse, in vivo) was “no clinical signs of toxicity being observed”. The “growth of human skin fibroblasts” value [4] was “does not influence the growth”, the “activity against K562 cells” value [5] was “active” and the IC50 [6] was 53.4 µM.
